One experiment has as its system Str. mitis. Nature of the experiment: two-fold serial dilution test, minimum inhibitory concentration (Table I). The class given is cell-based. As to conditions: Streptococcus mitis, Str. mitis (Gram Positive), 1% solution in 95% ethyl alcohol. The source says: (§1) *Data indicates minimum inhibitory concentration in parts per million
(§2) tested by the two-fold serial dilution text method utilizing 1% solution
(§3) of the test material in 95% ethyl alcohol.

Another experiment deals with A. niger. The experiment is described as above. The class given is cell-based. As to conditions: Aspergillus niger, A. niger (Mold), 1% solution in 95% ethyl alcohol.
Text: as §1, §2, §3

The test system of a further experiment is E. coli. The description is as above. As to conditions: Escherichia coli, read-out: minimum inhibitory concentration. The class given is cell-based.
Text: as §1, §2, §3

Another experiment concerns Ps. aeruginosa. The experiment is described as above. The class given is cell-based. As to conditions: Pseudomonas aeruginosa, Ps. aeruginosa (Gram Negative), 1% solution in 95% ethyl alcohol.
Text: as §1, §2, §3

The next experiment has as its system S. aureus. The description is as above. The class given is cell-based. As to conditions: Staphylococcus aureus, read-out: minimum inhibitory concentration.
Text: as §1, §2, §3

In the next experiment the test system is C. albicans. Described as above. The experiment is classed as cell-based, Candidia albicans. Conditions: Candida albicans, C. albicans (Yeast), 1% solution in 95% ethyl alcohol.
Text: as §1, §2, §3

The subject of another experiment is T. mentagrophytes. The experiment is described as above. The class given is cell-based. Conditions: Trichophyton mentagrophytes, T. mentagrophytes (Mold), 1% solution in 95% ethyl alcohol.
Text: as §1, §2, §3

The test system of a further experiment is P. ovale. Described as above. The experiment is classed as cell-based. As to conditions: Pityrosporum ovale, P. ovale (Yeast), 1% solution in 95% ethyl alcohol.
Text: as §1, §2, §3

The test system of a further experiment is microorganisms. Nature of the experiment: antimicrobial properties of shampoo compositions. As to conditions: substituted for 4-chlorphenyl 1-oxo-2-pyridyl disulfide in shampoo of Example VII.
Another experiment deals with soil and foliage fungi. As to conditions: U.S. Pat. No. 2,922,790; soil and foliage fungicides; cited from earlier work.

Converted amounts (≈) assume the structure as drawn. Where two headings read alike, the source gives them in different places.

For the compound `[O-][n+]1ccccc1SSc1cccc[n+]1[O-]`, the MIC against Str. mitis was 31.2 µg/mL (≈ 124 µM); with A. niger, 62.5 µg/mL (≈ 248 µM); in the experiment on E. coli it was 62.5 µg/mL (≈ 248 µM); in the experiment on Ps. aeruginosa, 250 µg/mL (≈ 991 µM); in the experiment on S. aureus, 7.8 µg/mL (≈ 30.9 µM); in the experiment with C. albicans it was 31.2 µg/mL (≈ 124 µM).
`[O-][n+]1ccccc1SSc1ccccc1`: the MIC against Str. mitis amounted to 15.6 µg/mL (≈ 66.3 µM); with A. niger, 15.6 µg/mL (≈ 66.3 µM); against T. mentagrophytes, 15.6 µg/mL (≈ 66.3 µM); against P. ovale it was 0.1 µg/mL (≈ 0.425 µM); in the experiment on E. coli (E. coli (Gram Negative), 1% solution in 95% ethyl alcohol, two-fold serial dilution), 31.2 µg/mL (≈ 133 µM); against Ps. aeruginosa it was 250 µg/mL (≈ 1060 µM). The MIC with S. aureus (S. aureus (Gram Positive), 1% solution in 95% ethyl alcohol, two-fold serial dilution) was 3.9 µg/mL (≈ 16.6 µM); with C. albicans, over 1000 µg/mL.
`[O-][n+]1ccccc1SSCc1ccc(Cl)cc1Cl`: the MIC is 7.8 µg/mL (≈ 24.5 µM) in the experiment on Str. mitis; 15.6 µg/mL (≈ 49 µM) in the experiment on A. niger; 3.9 µg/mL (≈ 12.3 µM) against T. mentagrophytes; 31.2 µg/mL (≈ 98 µM) in the experiment on E. coli; 125 µg/mL (≈ 393 µM) against Ps. aeruginosa; under 0.5 µg/mL in the experiment on S. aureus. The compound also yielded an MIC against C. albicans of 7.8 µg/mL (≈ 24.5 µM).
`[O-][n+]1ccccc1SSc1ccc(Cl)cc1` had an MIC against P. ovale of 3.9 µg/mL (≈ 14.5 µM).
`[O-][n+]1ccccc1SSc1ccc(Cl)c(Cl)c1` came in with an MIC in the experiment with P. ovale of 15.6 µg/mL (≈ 51.3 µM).
On to `[O-][n+]1ccccc1SSCc1ccc(Cl)cc1`, for which, in the experiment with P. ovale, the MIC came out at 1.9 µg/mL (≈ 6.69 µM).
Consider `[O-][n+]1ccccc1SSCc1ccc(Cl)c(Cl)c1`, for which, in the experiment on P. ovale, the MIC worked out at 3.9 µg/mL (≈ 12.3 µM).
On to `CCCCCCCCCCCCSSc1cccc[n+]1[O-]` [dodecyl 1-oxo2-pyridyl disulfide, Dodecyl 1-oxo-2-pyridyl disulfide], for which, in the experiment with microorganisms, the “antimicrobial properties of the resultant shampoo” value (“antimicrobial properties” below) is “substantially similar antimicrobial properties”.
For the compound `CCCCCCSSc1cccc[n+]1[O-]` [hexyl 1-oxo-2-pyridyl disulfide, Hexyl 1-oxo-2-pyridyl disulfide], the “antimicrobial properties” value with microorganisms is on record as “substantially similar antimicrobial properties”.
On to `COc1ccc(SSc2cccc[n+]2[O-])cc1` [p-methoxyphenyl 1oxo-2-pyridyl disulfide, p-Methoxyphenyl 1-oxo-2-pyridyl disulfide], for which, in the experiment on microorganisms, the “antimicrobial properties” value was “substantially similar antimicrobial properties”.
Decenyl 1-oxo-2-pyridyl disulfide: the “antimicrobial properties” value in the experiment on microorganisms was “substantially similar antimicrobial properties”.
For “pyridine-1-oxide trichloromethyl disulfide”, the “pesticidal properties” value with soil and foliage fungi was “pesticidal properties desirable in soil and foliage fungicides”.
